In paper PMC7072677, “Arachidonoylcholine and Other Unsaturated Long-Chain Acylcholines Are Endogenous Modulators of the Acetylcholine Signaling System” (Biomolecules, 2020):
Entries after “also recorded” stand apart in the source; their conditions may differ. Where two headings read alike, the source gives them in different places.

Legend:
α7 nAChR = target: T1, α7 nAChR (Homo sapiens, UniProt P36544); assay: Ca2+ mobilization (agonist test) in SH-SY5Y cells; type: cell-based
T1 construct: SH-SY5Y cells endogenously expressing α7 nAChR; host or cells: SH-SY5Y
Description: Cells were cultured for two days at 37 °C on black 96-well plates. Immediately before the experiments, cells were incubated with […] Fluo-4AM ester reagent and 1.25 mM probenecid (organic anion transporter inhibitor) for 1 h at room temperature. After the incubation, the cells were washed out with the extracellular solution (140 mM NaCl, 2 mM CaCl2, 2.8 mM KCl, 4 mM MgCl2, 20 mM HEPES, 10 mM glucose; pH 7.4). The last washout was supplied with 10 uM α7 nAChR positive allosteric modulator PNU 120596 and tested compound. The excitation of Fluo-4 achieved at 485 nm and fluorescence registered at 535 nm using Hidex Sense Beta Plus (Turku, Finland) multi-well plate fluorimeter. The calcium rise amplitude was measured from the base level of each well.

mouse muscle nAChR = target: T2, mouse muscle nAChR (Mus musculus, UniProt P02716+P04756+P20782); assay: Two-electrode electrophysiology, ACh-evoked current in Xenopus oocytes; type: cell-based
T2 construct: expressed in transfected cells; host or cells: Xenopus laevis oocytes, cDNA in pRBG4

α1β3γ2 GABAAR = target: T3, α1β3γ2 GABAAR (Mus musculus, UniProt P62812+P63080); assay: Electrophysiology, GABA-evoked currents in Xenopus oocytes; type: cell-based; details: up to a concentration of 10 μM
T3 construct: expressed in transfected cells; host or cells: Xenopus oocytes, cDNA in PCI vector

[1] = tested on: mouse forelimb grip strength; assay: In vivo myorelaxant activity, forelimb grip strength; details: mice
human erythrocyte AChE [2] = target: T4, human erythrocyte AChE (Homo sapiens, UniProt P22303); assay: Hydrolysis of the substance by AChE (HPLC); type: in vitro ADME; details: 1 mM substance, 0.02 U/mL enzyme, pH 7.5, 25 °C, 40 min
Description: (§1) AChE and BChE hydrolysis of AA-CHOL was determined in 100 mM phosphate buffer, pH 7.5 at 25 °C, the AA-CHOL concentration was 1 mM, the incubation time was 40 min. The enzyme concentrations were 0.02 U/mL in the sample. The reverse phase HPLC method was used to estimate the hydrolysis of AA-CHOL. As a control, acetylthiocholine iodide (ATCh) hydrolysis was determined in the same conditions.

equine serum BChE [3] = target: T5, equine serum BChE (Equus caballus, UniProt P81908); assay: Hydrolysis of the substance by BChE (HPLC); type: in vitro ADME, horse; details: 1 mM substance, 0.02 U/mL enzyme, pH 7.5, 25 °C
Description: as §1

human erythrocyte AChE [4] = target: T4, human erythrocyte AChE; assay: biochemical; details: for IC50: 10 min preincubation, ATCh 1 mM, N = 11, read-out: AChE IC50, inhibition of ATCh hydrolysis
equine serum BChE [5] = target: T5, equine serum BChE; assay: biochemical; details: for IC50: 10 min preincubation, ATCh 1 mM, N = 11, read-out: BChE IC50, inhibition of ATCh hydrolysis
A549 lung cancer cells [6] = details: for decrease of A549 viability: 100 μM, 24 h incubation, MTT; for decrease of cell viability, dose-dependent, maximum: A549 lung cancer cells
[7] = tested on: sea urchin Strongylocentrotus droebachiensis and S. purpuratus embryo; parameters: method as in PMID 11443948; details: quenched by QX-222; cited from earlier work
A549 cells = assay: Caspase activation and apoptosis staining in A549 cells; type: cell-based; details: A549, 150 μM
A549 lung cancer cells [8] = details: 1 to 10 µM, predominantly after 48 and 72 h; cited from earlier work

T4 sequence (P22303 32-617 isoform P22303-2 limits assumed): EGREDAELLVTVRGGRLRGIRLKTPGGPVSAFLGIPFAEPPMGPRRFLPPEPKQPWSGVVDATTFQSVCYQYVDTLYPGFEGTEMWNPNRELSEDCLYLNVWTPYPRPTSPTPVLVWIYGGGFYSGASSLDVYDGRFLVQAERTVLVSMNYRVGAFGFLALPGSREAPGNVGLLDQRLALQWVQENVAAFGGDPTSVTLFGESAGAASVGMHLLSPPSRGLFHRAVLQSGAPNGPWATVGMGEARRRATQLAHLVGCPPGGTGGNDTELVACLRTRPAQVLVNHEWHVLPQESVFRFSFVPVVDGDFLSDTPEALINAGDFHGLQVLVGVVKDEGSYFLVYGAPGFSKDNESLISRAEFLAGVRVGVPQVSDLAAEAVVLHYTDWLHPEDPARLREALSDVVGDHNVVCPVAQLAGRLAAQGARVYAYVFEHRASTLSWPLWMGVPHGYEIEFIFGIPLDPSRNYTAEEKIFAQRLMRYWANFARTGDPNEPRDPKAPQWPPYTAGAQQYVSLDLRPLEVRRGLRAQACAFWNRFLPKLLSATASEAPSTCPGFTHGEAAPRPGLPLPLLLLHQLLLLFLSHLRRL
T5 sequence (P81908 whole entry): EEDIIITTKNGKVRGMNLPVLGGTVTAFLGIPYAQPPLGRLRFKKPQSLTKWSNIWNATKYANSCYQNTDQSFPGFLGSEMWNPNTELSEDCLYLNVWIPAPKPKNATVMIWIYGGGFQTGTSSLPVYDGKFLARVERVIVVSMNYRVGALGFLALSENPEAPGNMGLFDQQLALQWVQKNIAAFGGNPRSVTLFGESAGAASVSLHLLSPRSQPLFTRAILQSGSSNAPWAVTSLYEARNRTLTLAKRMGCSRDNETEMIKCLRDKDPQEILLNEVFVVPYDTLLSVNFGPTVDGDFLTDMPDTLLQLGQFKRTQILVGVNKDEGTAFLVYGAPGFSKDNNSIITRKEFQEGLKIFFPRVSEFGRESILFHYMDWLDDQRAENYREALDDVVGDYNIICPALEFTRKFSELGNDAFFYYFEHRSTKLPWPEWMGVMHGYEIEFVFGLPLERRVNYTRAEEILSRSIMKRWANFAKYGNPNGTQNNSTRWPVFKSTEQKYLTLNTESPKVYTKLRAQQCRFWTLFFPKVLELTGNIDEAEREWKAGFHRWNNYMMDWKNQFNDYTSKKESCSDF
T1 sequence (P36544 23-502): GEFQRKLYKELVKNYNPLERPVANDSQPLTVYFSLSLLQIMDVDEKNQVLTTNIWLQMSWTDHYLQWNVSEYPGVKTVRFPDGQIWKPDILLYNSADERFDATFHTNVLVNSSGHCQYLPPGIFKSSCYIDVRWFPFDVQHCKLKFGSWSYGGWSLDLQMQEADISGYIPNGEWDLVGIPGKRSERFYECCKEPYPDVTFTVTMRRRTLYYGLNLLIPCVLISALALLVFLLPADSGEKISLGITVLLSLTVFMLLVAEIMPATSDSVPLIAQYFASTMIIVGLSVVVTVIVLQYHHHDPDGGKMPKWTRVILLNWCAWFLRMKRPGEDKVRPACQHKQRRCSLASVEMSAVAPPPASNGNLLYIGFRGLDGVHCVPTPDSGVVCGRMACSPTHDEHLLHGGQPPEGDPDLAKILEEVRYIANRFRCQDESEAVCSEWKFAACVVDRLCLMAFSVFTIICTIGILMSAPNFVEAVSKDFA
T2 sequence (P04756 21-457): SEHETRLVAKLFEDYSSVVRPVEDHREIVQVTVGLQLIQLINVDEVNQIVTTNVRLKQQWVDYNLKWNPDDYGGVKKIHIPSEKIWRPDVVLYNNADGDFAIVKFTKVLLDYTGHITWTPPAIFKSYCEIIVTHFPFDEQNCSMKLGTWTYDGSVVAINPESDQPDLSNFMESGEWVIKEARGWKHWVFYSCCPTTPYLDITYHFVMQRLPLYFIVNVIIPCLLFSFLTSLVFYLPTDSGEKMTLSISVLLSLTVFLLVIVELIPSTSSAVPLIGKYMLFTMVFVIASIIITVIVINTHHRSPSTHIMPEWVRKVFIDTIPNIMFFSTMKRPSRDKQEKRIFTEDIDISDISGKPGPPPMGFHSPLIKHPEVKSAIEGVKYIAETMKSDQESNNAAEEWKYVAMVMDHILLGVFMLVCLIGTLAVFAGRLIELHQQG
T2 sequence (P09690 24-501 partner): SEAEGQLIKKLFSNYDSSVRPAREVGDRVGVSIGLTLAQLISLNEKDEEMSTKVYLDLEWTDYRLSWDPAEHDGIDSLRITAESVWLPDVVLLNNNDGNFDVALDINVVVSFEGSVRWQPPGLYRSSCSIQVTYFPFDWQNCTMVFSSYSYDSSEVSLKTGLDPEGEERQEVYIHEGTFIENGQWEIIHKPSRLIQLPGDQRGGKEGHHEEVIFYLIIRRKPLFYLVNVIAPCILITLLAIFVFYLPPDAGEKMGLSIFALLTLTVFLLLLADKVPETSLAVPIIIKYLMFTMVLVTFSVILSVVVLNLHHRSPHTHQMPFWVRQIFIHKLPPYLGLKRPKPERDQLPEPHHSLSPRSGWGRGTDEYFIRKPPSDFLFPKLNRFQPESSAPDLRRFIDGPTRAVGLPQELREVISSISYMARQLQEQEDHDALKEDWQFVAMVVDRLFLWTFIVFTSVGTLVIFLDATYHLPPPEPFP
T2 sequence (P02716 25-520): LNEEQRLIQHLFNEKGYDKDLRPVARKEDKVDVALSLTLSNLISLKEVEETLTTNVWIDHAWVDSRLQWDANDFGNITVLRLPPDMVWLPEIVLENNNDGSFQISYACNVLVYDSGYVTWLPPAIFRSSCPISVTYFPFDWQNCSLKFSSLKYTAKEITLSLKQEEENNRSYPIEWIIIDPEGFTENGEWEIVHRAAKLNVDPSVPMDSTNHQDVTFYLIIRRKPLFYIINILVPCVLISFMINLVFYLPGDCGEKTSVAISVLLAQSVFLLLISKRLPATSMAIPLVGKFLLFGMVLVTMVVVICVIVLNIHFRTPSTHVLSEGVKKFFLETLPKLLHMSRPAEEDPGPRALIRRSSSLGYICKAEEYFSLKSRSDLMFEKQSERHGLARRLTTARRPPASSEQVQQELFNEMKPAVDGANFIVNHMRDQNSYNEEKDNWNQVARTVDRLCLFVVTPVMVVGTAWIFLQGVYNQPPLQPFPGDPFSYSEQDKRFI
T2 sequence (P20782 21-493): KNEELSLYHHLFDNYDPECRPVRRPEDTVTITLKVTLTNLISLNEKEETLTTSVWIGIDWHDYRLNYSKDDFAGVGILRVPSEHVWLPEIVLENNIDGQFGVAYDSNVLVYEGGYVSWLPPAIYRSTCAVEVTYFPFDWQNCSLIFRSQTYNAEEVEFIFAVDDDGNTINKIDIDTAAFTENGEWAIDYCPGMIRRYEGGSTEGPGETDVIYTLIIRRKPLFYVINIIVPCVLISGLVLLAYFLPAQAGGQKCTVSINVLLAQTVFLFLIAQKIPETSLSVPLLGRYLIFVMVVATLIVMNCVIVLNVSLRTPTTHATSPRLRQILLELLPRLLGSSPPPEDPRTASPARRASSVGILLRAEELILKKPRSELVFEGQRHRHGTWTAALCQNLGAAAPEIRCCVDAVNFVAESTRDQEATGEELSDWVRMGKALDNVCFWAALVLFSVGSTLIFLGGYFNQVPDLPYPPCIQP
T3 sequence (P62812 28-455): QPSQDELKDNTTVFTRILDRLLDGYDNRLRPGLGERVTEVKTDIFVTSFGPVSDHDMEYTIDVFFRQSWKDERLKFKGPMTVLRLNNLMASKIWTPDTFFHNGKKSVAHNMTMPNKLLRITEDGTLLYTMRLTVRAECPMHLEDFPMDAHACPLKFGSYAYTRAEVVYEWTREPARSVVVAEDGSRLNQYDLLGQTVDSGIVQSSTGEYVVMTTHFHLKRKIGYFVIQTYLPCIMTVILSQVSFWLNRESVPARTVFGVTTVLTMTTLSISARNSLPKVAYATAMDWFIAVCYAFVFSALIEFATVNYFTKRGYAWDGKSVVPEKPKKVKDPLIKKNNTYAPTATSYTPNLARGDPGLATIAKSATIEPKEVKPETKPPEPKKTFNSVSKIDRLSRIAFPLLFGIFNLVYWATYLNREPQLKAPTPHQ
T3 sequence (P63080 26-473): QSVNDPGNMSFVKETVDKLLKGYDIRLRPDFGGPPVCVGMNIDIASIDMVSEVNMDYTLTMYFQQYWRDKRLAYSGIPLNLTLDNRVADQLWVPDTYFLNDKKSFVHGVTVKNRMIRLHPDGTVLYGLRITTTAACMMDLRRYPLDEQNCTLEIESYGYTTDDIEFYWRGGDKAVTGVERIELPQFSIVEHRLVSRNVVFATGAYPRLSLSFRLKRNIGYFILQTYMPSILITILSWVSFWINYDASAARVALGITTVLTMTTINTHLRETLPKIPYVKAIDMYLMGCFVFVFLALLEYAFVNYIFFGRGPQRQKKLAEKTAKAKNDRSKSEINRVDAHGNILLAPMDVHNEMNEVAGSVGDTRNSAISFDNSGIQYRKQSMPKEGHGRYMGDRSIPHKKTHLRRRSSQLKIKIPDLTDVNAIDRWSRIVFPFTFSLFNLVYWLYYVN
T3 sequence (P22723 39-474 partner): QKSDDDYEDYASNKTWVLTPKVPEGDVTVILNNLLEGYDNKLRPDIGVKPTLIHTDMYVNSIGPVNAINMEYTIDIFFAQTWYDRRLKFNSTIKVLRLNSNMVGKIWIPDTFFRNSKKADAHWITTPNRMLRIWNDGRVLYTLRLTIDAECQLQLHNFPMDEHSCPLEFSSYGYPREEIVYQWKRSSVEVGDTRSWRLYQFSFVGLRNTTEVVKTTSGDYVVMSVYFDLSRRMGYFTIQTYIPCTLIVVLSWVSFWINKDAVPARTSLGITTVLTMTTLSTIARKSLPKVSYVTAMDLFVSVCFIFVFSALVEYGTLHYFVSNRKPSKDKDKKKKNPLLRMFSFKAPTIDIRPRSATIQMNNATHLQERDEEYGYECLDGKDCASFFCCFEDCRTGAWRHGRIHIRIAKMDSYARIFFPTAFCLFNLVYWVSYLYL

CCCCC/C=C\C/C=C\C/C=C\C/C=C\CCCC(=O)OCC[N+](C)(C)C [AA-CHOL, Arachidonoylcholine]
induction of rise in intracellular Ca2+ (agonistic properties) (α7 nAChR): showed no agonistic properties
IC50 (mouse muscle nAChR): 3.16 ± 0.26 µM
functional inhibition of α1β3γ2 GABAAR (α1β3γ2 GABAAR): no functional inhibition
muscle relaxant effect, grip strength vs control ([1]; injection into front paws (intramuscular) 0.5, 1 and 4 mg/kg, 15 min to 4 h): no differences from the control group; also recorded: no difference from the control; also recorded: does not produce a significant muscle relaxation
muscle relaxant effect, grip strength vs control ([1]; subcutaneous injection 10 and 30 mg/kg, up to 240 min): No differences with the respective controls; also recorded: no substance activity
hydrolysis by AChE (human erythrocyte AChE [2]): not hydrolyzed
hydrolysis by BChE (equine serum BChE [3]; during 40 min): up to 30%
IC50 (human erythrocyte AChE [4]): 90 ± 1 µM
type of AChE inhibition (human erythrocyte AChE [4]; steady-state kinetics): mixed type mechanism; also recorded: mixed-type inhibition
αKi (noncompetitive component), AChE (human erythrocyte AChE [4]; steady-state, Lineweaver-Burk): 51.4 ± 4.1 µM
Ki (human erythrocyte AChE [4]; steady-state, Lineweaver-Burk, read-out: Ki (competitive component), AChE): 16.7 ± 1.5 µM
IC50 (equine serum BChE [5]): 170 ± 16 µM
type of BChE inhibition (equine serum BChE [5]; steady-state kinetics): mixed type mechanism; also recorded: mixed-type inhibition
αKi (noncompetitive component), BChE (equine serum BChE [5]; steady-state, Lineweaver-Burk): 214 ± 17 µM
Ki (equine serum BChE [5]; steady-state, Lineweaver-Burk, read-out: Ki (competitive component), BChE): 70.5 ± 6.3 µM
decrease of A549 viability (A549 lung cancer cells [6]): 10%
decrease of cell viability, dose-dependent, maximum (A549 lung cancer cells [6]): up to 45%
effect on sea urchin larva [7]: dose-dependently induced the larva immobilization and cell lysis

CC(=O)SCC[N+](C)(C)C.[I-] [ATCh, acetylthiocholine iodide, reference compound]
hydrolysis by AChE (human erythrocyte AChE [2]): fully hydrolyzed
hydrolysis by BChE (equine serum BChE [3]; 40 min): fully hydrolyzed

CC/C=C\C/C=C\C/C=C\C/C=C\C/C=C\C/C=C\CCC(=O)OCC[N+](C)(C)C [DHA-CHOL, docosahexaenoylcholine]
induction of rise in intracellular Ca2+ (agonistic properties) (α7 nAChR): showed no agonistic properties
AChE inhibitory activity (human erythrocyte AChE [4]): Neither Ln-CHOL nor DHA-CHOL had noticeable inhibitory activity
IC50 (human erythrocyte AChE [4]): > 300 µM
IC50 (equine serum BChE [5]): > 300 µM
decrease of A549 viability (A549 lung cancer cells [6]): inactive
effect on sea urchin larva [7]: dose-dependently induced the larva immobilization and cell lysis

CCCCC/C=C\C/C=C\CCCCCCCC(=O)OCC[N+](C)(C)C [Ln-CHOL]
induction of rise in intracellular Ca2+ (agonistic properties) (α7 nAChR): showed no agonistic properties
AChE inhibitory activity (human erythrocyte AChE [4]): Neither Ln-CHOL nor DHA-CHOL had noticeable inhibitory activity
IC50 (human erythrocyte AChE [4]): > 300 µM
IC50 (equine serum BChE [5]): > 300 µM
decrease of A549 viability (A549 lung cancer cells [6]): 10%
decrease of cell viability, dose-dependent, maximum (A549 lung cancer cells [6]): up to 45%

CN1CCC[C@H]1c1cccnc1 [Nicotine, reference compound]
effect on A549 proliferation (A549 lung cancer cells [6]; 15 μM): slightly decreased
effect on the cytotoxicity of Ol-CHOL (A549 lung cancer cells [6]; A549, 90 or 100 μM of Ol-CHOL): did not affect the cytotoxicity

CCCCCCCC/C=C\CCCCCCCC(=O)OCC[N+](C)(C)C [Ol-CHOL]
phosphatidylserine exposure on the membrane (A549 cells): phosphatidylserine exposure on the membrane
caspase 3 activation (A549 cells; 5 h): activation
caspase 8 activation (A549 cells; 5 h): not caspase 8 activation
caspase 9 activation (A549 cells; 5 h): activation
decrease of A549 viability (A549 lung cancer cells [6]): 45%
decrease of cell viability, dose-dependent, maximum (A549 lung cancer cells [6]): up to 45%

CCN1C[C@]2(COC(=O)c3ccccc3N3C(=O)C[C@H](C)C3=O)CC[C@H](OC)[C@@]34[C@@H]5C[C@H]6[C@H](OC)[C@@H]5[C@](O)(C[C@@H]6OC)[C@@](O)([C@@H](OC)[C@H]23)[C@@H]14 [methyllycaconitine, reference compound]
effect on A549 proliferation (A549 lung cancer cells [6]; up to the concentration of 10 μM): did not affect
effect on proliferation of the A549 cells (A549 lung cancer cells [8]): inhibits the proliferation
